Assay results from publication PMC8904075 (Journal of medicinal chemistry, 2021).
Where “and” joins values, the source holds several entries; their conditions need not be identical. Equal values may be shown once. Blank lines part the entries; values can stand above or below the molecule they belong to.

How the values were obtained:
P. falciparum = test: In vitro antimalarial activity as summarised in text; format: cell-based
[1] = test system: P. falciparum clone W2/Indochina (chloroquine and pyrimethamine resistant); test: In vitro antimalarial activity, 3H-hypoxanthine incorporation, W2; format: cell-based; settings: Table 2; means of at least two independent experiments
[2] = test system: P. falciparum TM90-C2B/Thailand (chloroquine, mefloquine, pyrimethamine, and atovaquone resistant); test: In vitro antimalarial activity, 3H-hypoxanthine incorporation, TM90-C2B; format: cell-based; settings: Table 2; means of at least two independent experiments
[3] = Aqueous stability / parent compound release by quantitative HPLC; format: physicochemical; settings: for parent compound released: release of parent compound 4
P. berghei-infected mice = settings: antimalarials in clinical trials; cited from earlier work
P. berghei-GFP = test: In vivo efficacy, modified Thompson test
[4] = format: in vivo

EC50 (P. falciparum; Plasmodium falciparum): > 4 µM
Molecule: CN1CCCOC1=O [compound 13, 3-Methyl-1,3-oxazinan-2-one]

Molecule: formaldehyde [compound 14]
W2 pEC50 [1]: inactive | EC50 (P. falciparum; release byproducts, devoid of antimalarial activity): > 4 µM | C2B pEC50 [2]: inactive

parent compound released ([3]; in 1 h at pH 7.0): > 90% | parent compound released ([3]; in 10 h at pH 4.0): > 25%
Molecule: CNCCOC(=O)OCOc1c(-c2ccc(C(F)(F)F)cc2)c(C)nc2cc(OC)c(Cl)cc12.Cl [compound 27, 6-Chloro-7-methoxy-2-methyl-3-(4-(trifluoromethyl)phenyl)-4-(((2-(methylammonio)ethoxycarbonyl)oxy)methoxy)quinoline, chloride salt]

Molecule: C[C@H]1Cc2c([nH]c3cc(Cl)c(F)cc23)[C@@]2(N1)C(=O)Nc1ccc(Cl)cc12 [KAE609]
single oral (PO) curative dose, single exposure radical cure (P. berghei-infected mice): 100 mg/kg

Molecule: c1cc([C@H]2CC[C@]3(CC2)OOC2(O3)C3CC4CC(C3)CC2C4)ccc1OCCN1CCOCC1 (stereo partly shown) [OZ439]
single oral (PO) curative dose, single exposure radical cure (P. berghei-infected mice): 20 mg/kg

Molecule: COc1cc2[nH]c(C)c(-c3ccc(Oc4ccc(OC(F)(F)F)cc4)cc3F)c(=O)c2cc1Cl [compound 2, 6-chloro-3-(2-fluoro-4-(4-(trifluoromethoxy)phenoxy)phenyl)-7-methoxy-2-methyl-4(1H)-quinolone]
in vivo activity (P. berghei-GFP; single dose of 10 mg/kg, 0.5% aqueous HEC): completely inactive

Molecule: CNCCCOC(=O)OCOc1c(-c2ccc(C(F)(F)F)cc2)c(C)nc2cc(OC)c(Cl)cc12.Cl [compound 28, 6-Chloro-7-methoxy-2-methyl-3-(4-(trifluoromethyl)phenyl)-4-(((3-(methylammonio)propyloxycarbonyl)oxy)methoxy)quinoline, chloride salt]
Suppression [%] day 6 PI ± S.D. (P. berghei-GFP; 10 mg/kg PO once a day on days 3–5 PI, 0.5% aqueous HEC, mice): 82 ± 0.6% | extension of life span of treated animals relative to untreated controls (P. berghei-GFP; 10 and 50 mg/kg PO days 3–5 PI): does not significantly extend | parent compound released ([3]; in 5 h at pH 7.0): > 55% | stability at low pH values ([3]; low pH values): stable

Molecule: CCOC(=O)Oc1c(-c2ccccc2C)c(C)nc2cc(OC)c(Cl)cc12 [compound 11, 6-Chloro-7-methoxy-2-methyl-3-(o-tolyl)-4-((ethoxycarbonyl)oxy)quinoline]
fold less potent than reference compound 3 (P. falciparum; in vitro antimalarial activity, Table 1): 10 fold

Molecule: CNCCCOC(=O)OCOc1c(-c2ccc(Oc3ccc(OC(F)(F)F)cc3)cc2F)c(C)nc2cc(OC)c(Cl)cc12.Cl [compound 30, 6-Chloro-7-methoxy-2-methyl-3-(2-fluoro-4-(4-(trifluoromethoxy)phenoxy)phenyl)-4-(((3-(methylammonio)propyloxycarbonyl)oxy)methoxy)quinoline, chloride salt]
single oral dose producing cures (P. berghei-GFP; P. berghei-infected mice, single dose, no advanced formulation): 3 mg/kg | average day of death (P. berghei-GFP; single dose 1 mg/kg PO, all 5 mice): > 13 days | number of cures (P. berghei-GFP; single dose 3 mg/kg PO on day 3 PI, 3 mg/kg): 5 out of 5 and 5/5 | number of cures (P. berghei-GFP; single dose 10 mg/kg PO on day 3 PI, 10 mg/kg): 5 out of 5 and 5/5 | clearance ([4]; single oral administration, 0.5% aqueous HEC): low clearance

Tmax ([4]; plasma, po, 50 mg/kg): 2 h | maximum plasma concentration of 4 ([4]; single oral 50 mg/kg of 4, 0.5% aqueous HEC): 365 nM
Molecule: COc1cc2[nH]c(C)c(-c3ccc(C(F)(F)F)cc3)c(=O)c2cc1Cl [compound 4, 6-chloro-7-methoxy-2-methyl-3-(4-(trifluoromethyl)phenyl)-4(1H)-quinolone]

Molecule: CS(=O)(=O)c1ccc(-c2cnc(N)c(-c3ccc(C(F)(F)F)nc3)c2)cc1 [MMV390048]
single oral (PO) curative dose, single exposure radical cure (P. berghei-infected mice): 30 mg/kg
